This note sets out measurements from ChEMBL document CHEMBL1201862, “PubChem BioAssay data set” (2004).

Active and inactive are the calls of the source.

In assay [1] the target is T1, Cannabinoid receptor 1 (Homo sapiens, UniProt P21554). Description: SAR analysis of antagonists of the Cannabinoid Receptor 1 using an Image-Based Assay - Set 3. [Related pubchem assays (depositor defined):AID1961, AID1965]. It is filed as functional.
Assay [2] has as its target T2, G-protein coupled receptor 35 (Homo sapiens, UniProt Q9HC97). Description: SAR analysis of Antagonists of the GPR35 Receptor using an Image-Based Assay - Set 4. [Related pubchem assays (depositor defined):[…]]. It counts as functional.
Assay [3] concerns the target T2, G-protein coupled receptor 35. Description: SAR analysis of Agonists of the GPR35 Receptor using an Image-Based Assay - Set 3. [Related pubchem assays (depositor defined):AID1961, AID1965]. It is filed as functional.
Assay [4] concerns the target T3, Cannabinoid receptor 2 (Homo sapiens, UniProt P34972). Description: SAR analysis of antagonists of the Cannabinoid Receptor 2 using an Image-Based Assay - Set 2. [Related pubchem assays (depositor defined):AID1961, AID1965]. It counts as functional.
Assay [5] has as its target T1, Cannabinoid receptor 1. Description: SAR analysis of agonists of the Cannabinoid Receptor 1 using an Image-Based Assay - Set 3. [Related pubchem assays (depositor defined):AID1961, AID1965]. It counts as functional.
Assay [6] deals with G-protein coupled receptor 55 (Homo sapiens, UniProt Q9Y2T6). Description: SAR analysis of selective Agonists of GPR55 using an Image-Based Assay - Set 2. [Related pubchem assays (depositor defined):AID1961, AID1965]. It counts as functional.
In assay [7] the target is T3, Cannabinoid receptor 2. Description: SAR analysis of agonists of the Cannabinoid Receptor 2 using an Image-Based Assay - Set 2. [Related pubchem assays (depositor defined):AID1961, AID1965]. It is filed as functional.
In assay [8] the target is X-box-binding protein 1 (Homo sapiens, UniProt P17861). It is filed as functional, Cricetulus griseus.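 Note: confirmatory dose-response counter-screen serving a CHOP assay.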
A short description of assay [9]: Luminescence Cell-Based Dose Retest to Confirm Inhibitors of Cancer Stem Cells. [Related pubchem assays (depositor defined):AID2717, AID2721]. It counts as functional. The settings on record: Homo sapiens.
The target in assay [10] is DNA damage-inducible transcript 3 protein (Mus musculus, UniProt P35639). It counts as functional, Cricetulus griseus.
Assay [11] addresses T4, Coagulation factor XII (Homo sapiens, UniProt P00748).
T4 sequence (P00748 whole entry): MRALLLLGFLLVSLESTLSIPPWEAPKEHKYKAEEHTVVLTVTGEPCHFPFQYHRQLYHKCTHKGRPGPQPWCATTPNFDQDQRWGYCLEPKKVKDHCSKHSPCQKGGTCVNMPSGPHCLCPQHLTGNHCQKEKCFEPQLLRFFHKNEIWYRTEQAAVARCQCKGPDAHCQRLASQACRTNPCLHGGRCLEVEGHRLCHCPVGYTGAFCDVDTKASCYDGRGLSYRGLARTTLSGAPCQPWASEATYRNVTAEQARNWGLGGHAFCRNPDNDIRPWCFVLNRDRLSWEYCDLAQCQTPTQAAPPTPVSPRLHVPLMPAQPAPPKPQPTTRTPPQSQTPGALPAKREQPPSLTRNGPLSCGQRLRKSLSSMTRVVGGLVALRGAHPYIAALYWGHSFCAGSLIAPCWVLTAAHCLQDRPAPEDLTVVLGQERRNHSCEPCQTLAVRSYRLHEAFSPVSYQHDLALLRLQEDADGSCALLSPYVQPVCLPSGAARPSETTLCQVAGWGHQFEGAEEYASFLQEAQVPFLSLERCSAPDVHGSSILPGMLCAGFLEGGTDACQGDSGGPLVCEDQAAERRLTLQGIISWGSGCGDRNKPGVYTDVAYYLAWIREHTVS
Description: Factor XIIa Dose Response Confirmation from Single Well HTS. [Related pubchem assays (depositor defined):AID701]. It is filed as functional.

Assay [12] is described as follows: HEp-2 cell cytotoxicity, dose response, cytotoxicity control for RSV inhibitor project, HTS (AID 2410). It counts as functional. The settings on record: human respiratory syncytial virus.
Assay [13] in a line: Intein inhibitors as potential Tuberculosis drugs, a cytotoxicity screen. [Related pubchem assays (depositor defined):AID2221, AID2223, AID434968, AID435010, AID449749, AID449750, AID489010]. It counts as functional.
Assay [14] in a line: growth suppression of beta-catenin-knockout colon cells, dose response, cell-based, HCT116, human colon tumor (AID 1045).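 Note: HCT116 colon tumor cells with beta catenin knocked out; cells exposed to compound for 60 hours.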 It counts as functional.
Assay [15] deals with T5, Aminopeptidase N (Plasmodium falciparum FcB1/Columbia, UniProt O96935).
T5 sequence (O96935 whole entry): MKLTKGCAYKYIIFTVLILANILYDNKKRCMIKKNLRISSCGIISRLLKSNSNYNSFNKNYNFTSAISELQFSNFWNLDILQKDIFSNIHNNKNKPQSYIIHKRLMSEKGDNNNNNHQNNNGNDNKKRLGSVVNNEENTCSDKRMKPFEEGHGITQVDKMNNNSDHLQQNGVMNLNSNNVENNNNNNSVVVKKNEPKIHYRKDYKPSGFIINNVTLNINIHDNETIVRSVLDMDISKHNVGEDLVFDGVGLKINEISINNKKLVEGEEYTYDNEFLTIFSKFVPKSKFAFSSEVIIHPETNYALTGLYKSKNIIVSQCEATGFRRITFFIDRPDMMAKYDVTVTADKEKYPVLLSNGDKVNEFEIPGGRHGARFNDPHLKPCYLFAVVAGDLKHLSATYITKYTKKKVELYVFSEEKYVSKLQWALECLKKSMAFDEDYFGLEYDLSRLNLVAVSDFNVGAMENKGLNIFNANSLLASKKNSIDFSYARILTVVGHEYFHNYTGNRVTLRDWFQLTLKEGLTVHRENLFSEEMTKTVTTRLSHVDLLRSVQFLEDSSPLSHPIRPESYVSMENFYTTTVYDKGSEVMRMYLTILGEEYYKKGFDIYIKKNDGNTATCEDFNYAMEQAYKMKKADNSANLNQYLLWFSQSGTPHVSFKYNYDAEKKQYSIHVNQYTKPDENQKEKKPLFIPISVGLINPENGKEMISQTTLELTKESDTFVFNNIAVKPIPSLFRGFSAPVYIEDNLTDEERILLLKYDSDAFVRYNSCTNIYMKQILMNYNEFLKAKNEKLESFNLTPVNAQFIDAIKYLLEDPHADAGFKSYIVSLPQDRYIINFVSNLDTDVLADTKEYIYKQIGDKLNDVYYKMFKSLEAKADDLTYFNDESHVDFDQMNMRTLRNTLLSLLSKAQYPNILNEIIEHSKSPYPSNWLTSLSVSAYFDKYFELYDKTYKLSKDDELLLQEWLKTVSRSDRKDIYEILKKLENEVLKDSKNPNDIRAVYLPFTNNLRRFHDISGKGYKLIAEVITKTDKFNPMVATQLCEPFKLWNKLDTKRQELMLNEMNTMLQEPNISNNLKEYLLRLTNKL
Description: P. falciparum M1AAP inhibitors, biochemical, fluorogenic H-Leu-NHMec substrate, 1536-well (AID 1445). Details: species or system Plasmodium falciparum 3D7, 3D7.

The target in assay [16] is T6, Bcl-2-like protein 10 (Homo sapiens, UniProt Q9HD36).
T6 sequence (Q9HD36 whole entry): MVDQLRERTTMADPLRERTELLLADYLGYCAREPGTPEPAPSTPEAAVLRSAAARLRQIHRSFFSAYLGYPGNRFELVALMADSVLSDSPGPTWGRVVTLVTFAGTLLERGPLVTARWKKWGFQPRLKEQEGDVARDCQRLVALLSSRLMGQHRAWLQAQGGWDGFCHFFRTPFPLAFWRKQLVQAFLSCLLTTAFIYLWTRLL
Description: displacers of TR3 peptide from Bcl-B, primary screen, selectivity assay for Bfl-1 inhibitor project, biochemical, fluorescence polarization, FITC-TR3 peptide (AID 748).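 Note: fluorescence polarization from a fluorescein-labelled TR3 peptide binding purified Bcl-B.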

For assay [17], the target named is T7, Replicative DNA helicase DnaB (Mycobacterium tuberculosis, UniProt P9WMR3).
T7 sequence (P9WMR3 whole entry): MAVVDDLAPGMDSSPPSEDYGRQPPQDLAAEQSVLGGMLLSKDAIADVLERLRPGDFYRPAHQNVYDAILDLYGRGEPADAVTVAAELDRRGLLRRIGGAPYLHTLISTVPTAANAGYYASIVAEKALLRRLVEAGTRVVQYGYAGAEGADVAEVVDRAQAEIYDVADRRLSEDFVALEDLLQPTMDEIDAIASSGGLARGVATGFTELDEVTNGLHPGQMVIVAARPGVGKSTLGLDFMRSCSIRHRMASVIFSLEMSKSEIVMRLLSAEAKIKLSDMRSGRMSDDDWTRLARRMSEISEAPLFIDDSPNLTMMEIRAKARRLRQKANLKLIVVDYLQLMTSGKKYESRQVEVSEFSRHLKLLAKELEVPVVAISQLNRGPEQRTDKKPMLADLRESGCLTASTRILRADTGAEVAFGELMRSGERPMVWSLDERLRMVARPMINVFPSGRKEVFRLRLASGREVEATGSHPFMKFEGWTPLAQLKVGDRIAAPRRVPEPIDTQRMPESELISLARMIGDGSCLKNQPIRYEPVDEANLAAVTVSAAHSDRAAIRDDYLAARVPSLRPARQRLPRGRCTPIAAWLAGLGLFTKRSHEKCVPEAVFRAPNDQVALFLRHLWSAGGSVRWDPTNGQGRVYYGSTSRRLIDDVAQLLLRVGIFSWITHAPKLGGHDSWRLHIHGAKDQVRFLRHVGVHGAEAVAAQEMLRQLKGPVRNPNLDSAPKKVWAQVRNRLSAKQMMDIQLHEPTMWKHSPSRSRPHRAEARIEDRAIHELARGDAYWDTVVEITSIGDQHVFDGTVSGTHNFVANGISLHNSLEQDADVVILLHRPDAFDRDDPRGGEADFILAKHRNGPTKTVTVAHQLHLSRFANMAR
Description: DnaB intein splicing inhibitors, dose response, biochemical, cell-free fluorescence (AID 449749). It is filed as functional.

Assay [18] can be described thus: growth suppression of PTEN-null colon cells, dose response, cell-based, HCT116 PTEN knockout (AID 1047).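 Note: HCT116 colon tumor cells with PTEN knocked out; cells exposed to compound for 60 hours before readout; potency for loss of cell viability measured by luminescence.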 It counts as functional.
Assay [19] deals with T8, Protein RecA (Mycobacterium tuberculosis, UniProt P9WHJ3).
T8 sequence (P9WHJ3 whole entry): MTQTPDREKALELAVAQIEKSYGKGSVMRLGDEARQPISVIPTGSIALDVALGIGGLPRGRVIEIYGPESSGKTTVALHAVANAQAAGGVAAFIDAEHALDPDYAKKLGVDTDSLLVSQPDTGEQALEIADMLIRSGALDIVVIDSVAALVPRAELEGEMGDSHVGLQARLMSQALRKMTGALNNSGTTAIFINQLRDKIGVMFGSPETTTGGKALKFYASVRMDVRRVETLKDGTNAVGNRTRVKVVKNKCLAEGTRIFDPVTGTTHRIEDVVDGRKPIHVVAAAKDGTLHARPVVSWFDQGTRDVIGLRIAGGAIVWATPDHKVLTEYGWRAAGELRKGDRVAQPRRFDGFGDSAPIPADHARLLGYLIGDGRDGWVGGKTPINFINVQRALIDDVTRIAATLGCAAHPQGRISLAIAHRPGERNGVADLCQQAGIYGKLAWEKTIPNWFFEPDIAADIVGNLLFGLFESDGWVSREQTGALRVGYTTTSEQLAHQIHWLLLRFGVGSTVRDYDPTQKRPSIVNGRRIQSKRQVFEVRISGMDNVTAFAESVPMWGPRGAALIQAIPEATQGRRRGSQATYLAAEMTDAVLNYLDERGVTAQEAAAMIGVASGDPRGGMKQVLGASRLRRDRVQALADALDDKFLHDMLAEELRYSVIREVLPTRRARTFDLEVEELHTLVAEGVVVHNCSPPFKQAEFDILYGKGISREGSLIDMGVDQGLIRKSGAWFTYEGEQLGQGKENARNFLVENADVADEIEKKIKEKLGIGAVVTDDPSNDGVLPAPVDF
Description: Fluorescence Cell-Free Homogeneous Dose Retest to Identify Inhibitors of RecA-Intein Splicing Activity. [Related pubchem assays (depositor defined):AID2097, AID2223, AID489010, AID492950]. It is filed as functional.

T2 sequence (Q9HC97 whole entry): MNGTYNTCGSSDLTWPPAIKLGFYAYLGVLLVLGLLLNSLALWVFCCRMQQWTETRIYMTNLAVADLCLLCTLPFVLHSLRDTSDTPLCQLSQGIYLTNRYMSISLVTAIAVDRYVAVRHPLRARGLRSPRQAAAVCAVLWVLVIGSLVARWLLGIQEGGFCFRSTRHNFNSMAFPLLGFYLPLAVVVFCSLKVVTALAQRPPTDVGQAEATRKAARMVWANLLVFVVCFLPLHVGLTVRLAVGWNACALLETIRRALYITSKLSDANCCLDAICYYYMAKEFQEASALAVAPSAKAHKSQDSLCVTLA
T3 sequence (P34972 whole entry): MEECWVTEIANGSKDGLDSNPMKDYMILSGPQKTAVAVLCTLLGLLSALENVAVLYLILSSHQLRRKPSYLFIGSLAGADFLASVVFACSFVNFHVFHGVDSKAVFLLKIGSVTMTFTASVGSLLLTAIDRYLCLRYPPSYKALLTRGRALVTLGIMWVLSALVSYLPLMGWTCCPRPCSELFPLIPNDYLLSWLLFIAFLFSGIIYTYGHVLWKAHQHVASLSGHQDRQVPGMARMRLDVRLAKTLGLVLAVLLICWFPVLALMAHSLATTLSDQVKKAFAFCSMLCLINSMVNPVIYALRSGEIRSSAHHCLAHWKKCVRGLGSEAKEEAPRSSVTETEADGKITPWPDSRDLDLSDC
T1 sequence (P21554 whole entry): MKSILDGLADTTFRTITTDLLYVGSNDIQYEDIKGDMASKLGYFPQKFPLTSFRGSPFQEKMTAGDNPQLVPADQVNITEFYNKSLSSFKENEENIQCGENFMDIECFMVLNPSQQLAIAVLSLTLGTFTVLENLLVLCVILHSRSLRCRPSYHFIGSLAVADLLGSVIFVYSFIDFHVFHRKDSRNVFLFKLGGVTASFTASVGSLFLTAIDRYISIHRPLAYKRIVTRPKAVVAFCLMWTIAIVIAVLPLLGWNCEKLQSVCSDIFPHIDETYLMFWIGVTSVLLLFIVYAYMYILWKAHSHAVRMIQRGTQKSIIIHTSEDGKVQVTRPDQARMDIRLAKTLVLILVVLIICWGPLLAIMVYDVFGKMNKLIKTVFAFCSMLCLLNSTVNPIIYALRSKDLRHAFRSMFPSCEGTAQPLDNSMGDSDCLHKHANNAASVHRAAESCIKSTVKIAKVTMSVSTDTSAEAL
Sequence of G-protein coupled receptor 55 (Q9Y2T6 whole entry): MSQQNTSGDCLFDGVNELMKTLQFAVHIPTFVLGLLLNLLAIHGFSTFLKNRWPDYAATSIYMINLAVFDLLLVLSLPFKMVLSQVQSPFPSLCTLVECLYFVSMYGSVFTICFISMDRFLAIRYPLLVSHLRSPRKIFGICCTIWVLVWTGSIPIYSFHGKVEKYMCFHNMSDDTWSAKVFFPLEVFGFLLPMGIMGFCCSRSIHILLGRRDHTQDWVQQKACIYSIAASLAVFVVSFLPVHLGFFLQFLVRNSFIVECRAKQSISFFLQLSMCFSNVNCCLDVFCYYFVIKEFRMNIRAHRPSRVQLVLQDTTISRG
Sequence of DNA damage-inducible transcript 3 protein (P35639 whole entry): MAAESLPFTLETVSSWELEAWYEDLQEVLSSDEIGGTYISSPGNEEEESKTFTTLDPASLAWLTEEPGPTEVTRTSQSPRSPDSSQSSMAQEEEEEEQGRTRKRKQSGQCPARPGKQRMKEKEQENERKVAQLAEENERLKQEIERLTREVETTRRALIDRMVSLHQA
Sequence of X-box-binding protein 1 (P17861 whole entry): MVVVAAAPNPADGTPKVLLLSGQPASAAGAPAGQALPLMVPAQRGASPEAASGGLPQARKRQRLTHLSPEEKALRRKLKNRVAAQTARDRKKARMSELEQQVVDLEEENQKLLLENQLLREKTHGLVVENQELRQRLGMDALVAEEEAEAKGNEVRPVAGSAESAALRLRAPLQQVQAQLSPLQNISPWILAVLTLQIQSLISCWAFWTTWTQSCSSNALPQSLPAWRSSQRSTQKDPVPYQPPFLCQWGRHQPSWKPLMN

On to `Cc1ccc2cc(C)c3nnc(SCC(=O)N(C)c4nc(-c5ccccc5)cs4)n3c2c1`, for which the 50% inhibitory concentration (IC50) in assay [1] is 4.44 µM (active); in assay [2], > 32 µM (inactive); in assay [4], > 32 µM (inactive). Further, the EC50 in assay [3], in assay [5], in assay [6] and in assay [7] was > 32 µM (inactive) in each case.

On to `CCCc1ccc(O)c(/N=C/c2cc(Br)cc(OCC)c2O)c1`, for which the “Absolute IC50 (XBP1)” value in assay [8] was determined as 10 µM. The AC50 in assay [9] is 9.69 µM (active). Also, in [10], the “Absolute IC50 (CHOP)” value worked out at 10 µM.

As for `Cc1ccc(-c2cc(-c3ccccc3)c3c(N)c(S(C)(=O)=O)sc3n2)cc1`, in assay [11], the IC50 is > 50 µM (inactive). In [12], the CC50 is 48.4 µM (active).

Turning to `Cc1ccc(O)c(/N=C/C2=C(O)c3ccccc3C2=O)c1`, in assay [13], the cytotoxic concentration (CC50) is > 40 µM (active). Moreover, the values for the EC50 in assay [14], in assay [18] and in assay [19] were 22.2 µM (active), 32 µM (active) and 0.216 µM (active), respectively. The IC50 in assay [15] is 71.9 µM (active); in [16] it was 44.7 µM (active). Further, in assay [17], the AC50 was 0.4 µM (active).
